Measurements: publication PMC3180999 (Journal of medicinal chemistry, 2010)

How the values were obtained:
AR = conditions: cited from earlier work
PSA secretion = assay: relative PSA level / PSA secretion assay, cell line not named; assay type: cell-based; conditions: vs bicalutamide and 27 as standards, Scheme 9
LAPC4/AR cells = assay: LAPC4/AR xenograft in castrate SCID mice; assay type: in vivo; conditions: for fold change in tumor volume of xenografts: 10 mg/kg, pilot experiment, Figure 1
[1] = pharmacokinetics: serum concentration, steady state concentration
[2] = tested on: LNCaP (hormone sensitive) cells; assay: PSA expression readout in normal LNCaP; assay type: cell-based
LNCaP/AR cells [3] = assay: PSA expression readout in LNCaP/AR; assay type: cell-based; conditions: Schemes 18 and 19
LNCaP/AR cells [4] = assay: LNCaP/AR xenograft in castrate SCID mice; assay type: in vivo
[5] = serum concentration after IV injection, Figure 3
[6] = oral, 0.1, 1 and 10 mg/kg once a day, Figure 7

In the case of `CC1(C)C(=O)N(c2ccc(C#N)c(C(F)(F)F)c2)C(=S)N1CCCCO` [RU59063], the “affinity for the AR” value (AR) is listed as “nearly equal to that of the well known steroidal agonist R1881”.
For `Cc1ccc(N2C(=S)N(c3ccc(C#N)c(C(F)(F)F)c3)C(=O)C23CCC3)cc1` [compound 38, 4-(8-Oxo-6-thioxo-5-(4-methylphenyl)-5,7-diazaspiro[3.4]oct-7-yl)-2-trifluoromethylbenzonitrile], the “relative PSA expression levels” value (PSA secretion) was “comparable to the dimethyl analogue 27”, the “fold change in tumor volume of xenografts” value (LAPC4/AR cells) was “slightly superior” and the “dose response in change in tumor volume of xenografts” value (LAPC4/AR cells; castration-resistant xenograft assay, model not named at the place, Figure 2) was “good dose response”. The clearance [1, 5] was “very rapid clearance” and the half-life [1, 5] was “short half-life”.
For `Cc1ccc(N2C(=S)N(c3ccc(C#N)c(C(F)(F)F)c3)C(=O)C2(C)C)cc1` [compound 27, 4-[3-(4-Methylphenyl)-4,4-dimethyl-5-oxo-2-thioxoimidazolidin-1-yl]-2-trifluoromethylbenzonitrile], the “fold change in tumor volume of xenografts” value (LAPC4/AR cells) was “more effective than bicalutamide”.
In the case of `CC1(C)C(=O)N(c2ccc(C#N)c(C(F)(F)F)c2)C(=S)N1c1ccc(N=[N+]=[N-])cc1` [compound 25, 4-[3-(4-Azidophenyl)-4,4-dimethyl-5-oxo-2-thioxoimidazolidin-1-yl]-2-trifluoromethylbenzonitrile], the “relative PSA level vs vehicle (DMSO)” value ([2]; bicalutamide as standard, Scheme 6) is reported as “the best of this group”.
For `C[C@]1(O)CC[C@H]2[C@@H]3CCC4=CC(=O)CCC4=C3C=C[C@@]21C` [R1881], the “affinity for the AR” value (AR) is listed as “slightly higher than that of the natural ligand dihydrotestosterone”.
For `CNC(=O)c1ccc(N2C(=S)N(c3ccc(C#N)c(C(F)(F)F)c3)C(=O)C23CCC3)cc1F` [compound 91, N-Methyl-4-[7-(4-cyano-3-trifluoromethylphenyl)-8-oxo-6-thioxo-5,7-diazaspiro-[3.4]oct-5-yl]-2-fluorobenzamide], the “effect on hormone sensitive LNCaP cells (PSA)” value ([2]; 10% FBS, harvest on day 6 and day 10, Scheme 20) was “good activity”, the “activity in the hormone refractory LNCaP/AR assay” value (LNCaP/AR cells [3]) was “excellent activity” and the “activity on xenografts over an extended period” value (LNCaP/AR cells [4]; 10 mg/kg/day, 31 days, Figure 8) was “retains activity”. For the same molecule, the “effect on LNCaP/AR (HR) tumor size” value (LNCaP/AR cells [4]; 10 and 50 mg/kg once a day, vs bicalutamide at the same dose, Figure 6) was “very active”, the “dose required in dose response of tumor volume change” value (LNCaP/AR cells [4]; [6]) was “at least 1 mg/kg/day” and the “optimal dose in dose response of tumor volume change” value (LNCaP/AR cells [4]; [6]) was 10 mg/kg/day. For the same molecule, the “pharmacokinetic (PK) profile” value ([1]; mouse, in vivo) was “superb pharmacokinetic (PK) profile”.
